In ChEMBL document CHEMBL4819113, “Chemical modifications of ergostane-type triterpenoids from Antrodia camphorata and their cytotoxic activities” (Bioorg Med Chem Lett, 2021) one finds IC50 and Activity data, which are given here for 15 molecules.

A word on the IC50: it is the concentration needed to halve the response being measured. High values mean a need for much substance, low ones inhibition by little substance.

Data set [1] has as its system MCF7. As to the kind of experiment: Cytotoxicity against human MCF7 cells by MTT assay. The class given is functional, cell-based. On the technique in general: Tetrazolium dyes change colour on reduction, which living cells bring about.
In data set [2] the test system is SW480. As to the kind of experiment: Cytotoxicity against human SW480 cells by MTT assay. It counts as functional, cell-based.
Data set [3] deals with HL-60. As to the kind of experiment: Cytotoxicity against human HL-60 cells by MTT assay. It counts as functional, cell-based.
Data set [4] concerns U-251. As to the kind of experiment: Cytotoxicity against human U-251 cells by MTT assay. It counts as functional, cell-based.
The test system of data set [5] is L02. As to the kind of experiment: Cytotoxicity against human L02 cells by MTT assay. The class given is cell-based.
The subject of data set [6] is U-251. As to the kind of experiment: Cytotoxicity against human U-251 cells. It counts as functional, cell-based.
Data set [7] has as its system HL-60. As to the kind of experiment: Cytotoxicity against human HL-60 cells. The class given is functional, cell-based.
For data set [8], the system named is SW480. Briefly: Cytotoxicity against human SW480 cells. The class given is functional, cell-based.
Data set [9] has as its system MCF7. As to the kind of experiment: Cytotoxicity against human MCF7 cells. The class given is functional, cell-based.

As for `C=C(CC[C@@H](C)[C@H]1CC[C@H]2C3=C(C(=O)C[C@]12C)[C@@]1(C)CCC(=O)[C@@H](C)[C@@H]1C[C@H]3OC(C)=O)[C@H](C)C(=O)Nc1[nH]cnc1C(N)=O`, the IC50 in data set [1] was 17.6 µM; in data set [2] it was 17.9 µM; in data set [3], over 100 µM; in data set [4] it was 17.1 µM.
Regarding `C=C(CC[C@@H](C)[C@H]1CC[C@H]2C3=C(C(=O)C[C@]12C)[C@@]1(C)CC/C(=N\O)[C@@H](C)[C@@H]1C/C3=N/O)[C@H](C)C(=O)OC`, the IC50 amounted to 18.2 µM in [1], 2.2 µM in [2], 3.7 µM in data set [3] and 3.3 µM in data set [4]. In addition, the Activity result in [5] is “Non-Toxic”.
Taken in the same sequence, the figures for `C=C(CC[C@@H](C)[C@H]1CC[C@H]2C3=C(C(=O)C[C@]12C)[C@@]1(C)CCC(=O)[C@@H](C)[C@@H]1C[C@H]3OC(C)=O)[C@H](C)C(=O)Nc1ncc2ccccc2n1` were 8.6 µM, 40.8 µM, 8.9 µM, 2.9 µM and “Non-Toxic”.
With `C=C(CC[C@@H](C)[C@H]1CC[C@H]2C3=C(C(=O)C[C@]12C)[C@@]1(C)CCC(=O)[C@@H](C)[C@@H]1C[C@H]3OC(C)=O)[C@H](C)C(=O)Nc1ccc2ccccc2n1`, the IC50 in data set [1] was over 100 µM; in [2] it was over 100 µM; in data set [3], 96.3 µM; in data set [4], 95.8 µM.
With `C=C(CC[C@@H](C)[C@H]1CC[C@H]2C3=C(C(=O)C[C@]12C)[C@@]1(C)CCC(=O)[C@@H](C)[C@@H]1C[C@H]3OC(C)=O)[C@H](C)C(=O)Nc1ccc2[nH]ccc2c1`, the IC50 in data set [1] is 12.3 µM; in data set [2], over 100 µM; in data set [3], over 100 µM; in data set [4] it was 10.4 µM.
Take `C=C(CC[C@@H](C)[C@H]1CC[C@H]2C3=C(C(=O)C[C@]12C)[C@@]1(C)CCC(=O)[C@@H](C)[C@@H]1C[C@H]3OC(C)=O)[C@H](C)C(=O)OC`: the IC50 in [6] worked out at 11.4 µM; in [7], 16.8 µM; in data set [8] it was 15.4 µM; in data set [9] it was 46.3 µM.
Taken in the same sequence, the figures for `C=C(CC[C@@H](C)[C@H]1CC[C@H]2C3=C(C(=O)C[C@]12C)[C@@]1(C)CCC(=O)[C@@H](C)[C@@H]1CC3=O)[C@H](C)C(=O)OC` were 44.9 µM, 25.2 µM, over 100 µM and 50.7 µM.
`C=C(CC[C@@H](C)[C@H]1CC[C@H]2C3=C(C(=O)C[C@]12C)[C@@]1(C)CCC(=O)[C@@H](C)[C@@H]1C[C@H]3OC(C)=O)[C@H](C)C(=O)/N=c1/cc(CCc2ccccc2)[nH][nH]1`: the IC50 in data set [1], in data set [2], in data set [3] and in data set [4] was over 100 µM throughout.
In the case of `C=C(CC[C@@H](C)[C@H]1CC[C@H]2C3=C(C(=O)C[C@]12C)[C@@]1(C)CCC(=O)[C@@H](C)[C@@H]1C[C@H]3OC(C)=O)[C@H](C)C(=O)Nc1cccc2cccnc12`, the IC50 in [1] was over 100 µM; in data set [2] it was over 100 µM; in data set [3], 89.2 µM; in data set [4] it was over 100 µM.
Turning to `C=C(CC[C@@H](C)[C@H]1CC[C@H]2C3=C(C(=O)C[C@]12C)[C@@]1(C)CCC(=O)[C@@H](C)[C@@H]1C[C@H]3OC(C)=O)[C@H](C)C(=O)Nc1nc[nH]n1`, the IC50 in data set [1] was over 100 µM; in data set [2], over 100 µM; in data set [3], over 100 µM; in data set [4] it was 93.2 µM.
In the case of `C=C(CC[C@@H](C)[C@H]1CC[C@H]2C3=C(C(=O)C[C@]12C)[C@@]1(C)CCC(=O)[C@@H](C)[C@@H]1C[C@H]3OC(C)=O)[C@H](C)C(=O)O`, the IC50 in data set [6], in [7], in [8] and in data set [9] was over 100 µM throughout.
For the molecule `C=C(CC[C@@H](C)[C@H]1CC[C@H]2C3=C(C(=O)C[C@]12C)[C@@]1(C)CCC(=O)[C@@H](C)[C@@H]1C[C@H]3OC(C)=O)[C@H](C)C(=O)Nn1cnnc1`, the half-inhibitory concentration (IC50) in data set [1] was over 100 µM; in data set [2] it was over 100 µM; in data set [3] it was over 100 µM; in [4] it was 82.4 µM.
As for `C=C(CC[C@@H](C)[C@H]1CC[C@H]2C3=C(C(=O)C[C@]12C)[C@@]1(C)CCC(=O)[C@@H](C)[C@@H]1C[C@H]3OC(C)=O)[C@H](C)C(=O)Nc1ccccc1N`, the 50% inhibitory concentration (IC50) in data set [1] was 29.2 µM; in data set [2], over 100 µM; in [3], 0.7 µM; in data set [4], 27.4 µM. In addition, the Activity entry in data set [5] is reported as “Non-Toxic”.
Regarding `C=C(CC[C@@H](C)[C@H]1CC[C@H]2C3=C(C(=O)C[C@]12C)[C@@]1(C)CCC(=O)[C@@H](C)[C@@H]1CC3=O)[C@H](C)C(=O)O` [ANTCIN B], the IC50 in data set [6], in data set [7], in data set [8] and in [9] was over 100 µM in each case.
For the molecule `CC(=O)O[C@H]1C(=O)[C@@]2(C)[C@H]([C@H](OC(=O)c3ccccc3)[C@]3(O)C[C@H](OC(=O)[C@H](O)[C@@H](NC(=O)c4ccccc4)c4ccccc4)C(C)=C1C3(C)C)[C@]1(OC(C)=O)CO[C@@H]1C[C@@H]2O` [PACLITAXEL], in data set [3], the midpoint of inhibition, the IC50, lay at 0.08 µM.
